In patent US4577016A, “Process for the preparation of penem derivatives” (Farmitalia Carlo Erba S.p.A., priority 1982, dated 1986):
Structures can show the parent of a compound that is named as a salt.

Key:
Assay type in all cases: cell-based
[1] = system: Gram-positive bacteria; test: activity against Gram-positive bacteria; conditions: in words
[2] = system: Gram-negative bacteria; test: minimal inhibiting concentrations against Gram-negative bacteria; conditions: in words
[3] = system: Escherichia coli 1507 E; test: activity against Escherichia coli 1507 E; conditions: in words
[4] = system: Escherichia coli TEM; test: activity against Escherichia coli TEM; conditions: in words
[5] = system: Klebsiella pneumoniae ATCC 10031; test: activity against Klebsiella pneumoniae ATCC 10031; conditions: in words
[6] = system: Proteus vulgaris X 20; test: activity against Proteus vulgaris X 20; conditions: in words
[7] = system: Streptococcus pyogenes; test: minimal inhibiting concentration against Streptococcus pyogenes; conditions: sodium salt
[8] = system: Streptococcus pneumoniae; test: minimal inhibiting concentration against Streptococcus pneumoniae; conditions: sodium salt
[9] = system: penicillinase producer Staphylococcus aureus; test: minimal inhibiting concentration against penicillinase producer Staphylococcus aureus; conditions: sodium salt
[10] = system: penicillinase non-producer Staphylococcus aureus; test: minimal inhibiting concentration against penicillinase non-producer Staphylococcus aureus; conditions: sodium salt

C[C@@H](O)[C@H]1C(=O)N2C(C(=O)O)=C(CSc3ccc4nnnn4n3)S[C@H]12 [(5R,6S)-6-[1(R)-hydroxyethyl]-2-{tetrazolo[1,5-b]pyridazin-6-yl}-thiomethyl-penem-3-carboxylic acid]
activity against Gram-positive bacteria [1]: particularly active

C[C@@H](O)[C@H]1C(=O)N2C(C(=O)O)=C(CSc3nnnn3CCC(N)=O)S[C@H]12 [(5R,6S)-6-[1(R)-hydroxyethyl]-2-[1-(2-aminocarbonylethyl)-1,2,3,4-tetrazol-5-yl]-thiomethyl-penem-3-carboxylic acid]
minimal inhibiting concentrations against Gram-positive bacteria [1]: particularly favourable values | minimal inhibiting concentrations against Gram-negative bacteria [2]: particularly favourable values

C[C@@H](O)[C@H]1C(=O)N2C(C(=O)O)=C(CSc3nc(=O)c(O)nn3C)S[C@H]12 [(5R,6S)-6-[1(R)-hydroxyethyl]-2-(2-methyl-5-oxo-6-hydroxy-2,5-dihydro-1,2,4-triazin-3-yl)-thiomethyl-penem-3-carboxylic acid, disodium salt]
activity against Gram-negative bacteria [3]: particularly favourable activity | activity against Gram-negative bacteria [4]: particularly favourable activity | activity against Gram-negative bacteria [5]: particularly favourable activity | activity against Gram-negative bacteria [6]: particularly favourable activity

C[C@@H](O)[C@H]1C(=O)N2C(C(=O)O)=C(CSc3nnnn3C)S[C@H]12 [(5R,6S)-6-[1(R)-hydroxyethyl]-2-[1-methyl-1,2,3,4-tetrazol-5-yl)-thiomethyl]-penem-3-carboxylic acid]
minimal inhibiting concentrations against Gram-positive bacteria [1]: particularly favourable values | minimal inhibiting concentrations against Gram-negative bacteria [2]: particularly favourable values

C[C@@H](O)[C@H]1C(=O)N2C(C(=O)O)=C(CSc3ccc4nnnn4n3)S[C@H]12 [Sodium(5R,6S)-6-[1(R)-hydroxyethyl]-2-(tetrazolo[1,5-b]-pyridazin-6-yl)-thiomethyl-penem-3-carboxylate]
MIC [7]: 2 ng/mL | MIC [8]: 2 ng/mL | MIC [9]: 4 ng/mL | MIC [10]: 4 ng/mL

C[C@@H](O)[C@H]1C(=O)N2C(C(=O)O)=C(CSc3nnc(SCC(=O)O)s3)S[C@H]12 [(5R,6S)-6-[1(R)-hydroxyethyl]-2-(5-carboxymethylthio-1,3,4-thiadiazol-2-yl)-thiomethyl-penem-3-carboxylic acid]
minimal inhibiting concentrations against Gram-positive bacteria [1]: particularly favourable values | minimal inhibiting concentrations against Gram-negative bacteria [2]: particularly favourable values
